Experimental data as given in patent US10450335B2, “Antiviral oxime phosphoramide compounds” (Merck Sharp & Dohme Corp., priority 2015, dated 2019).
Where two headings read alike, the source gives them in different places.

Legend:
[1] = tested on: HIV-1 (H9/IIIB strain); assay: Viking assay: antiviral potency in a multiple round HIV-1 infection assay in MT4-GFP cells; format: cell-based; details: MT4-GFP cells infected with HIV-1 H9/IIIB, inhibition of reproductive ratio R0
Procedure: Assessing Antiviral Potency in a Multiple Round HIV-1 Infection Assay (Viking Assay)
The antiviral activity of the tenofovir prodrugs of the Examples herein was assessed in an assay that measures the rate of replication of HIV in cell culture, termed the Viking assay (VIral KINetics in Green cells) and performed as follows. HIV-1 replication was monitored using MT4-gag-GFP clone D3 (hereafter designated MT4-GFP), which are MT-4 cells modified to harbor a GFP reporter gene, the expression of which is dependent on the HIV-1 expressed proteins tat and rev. Productive infection of an MT4-GFP cell with HIV-1 results in GFP expression approximately 24 h post-infection. MT4-GFP cells were maintained at 37° C./5% CO2/90% relative humidity in RPMI 1640 supplemented with 10% fetal bovine serum, 100 U/ml penicillin/streptomycin, and 400 μg/ml G418 to maintain the reporter gene. For infections, MT4-GFP cells were placed in the same medium lacking G418 and infected overnight with HIV-1 (H9/IIIB strain) virus at an approximate multiplicity of infection of 0.01 in the same incubation conditions. Cells were then washed and re-suspended in either RPMI 1640 supplemented with 10% or 50% normal human serum (NHS) at 1.6×10^5 cells/mL (10% NHS or 50% NHS, respectively). Compound plates were prepared by dispensing compounds dissolved in DMSO into wells of 384 well poly-D-lysine-coated plates (0.2 μl/well) using an ECHO acoustic dispenser. Each compound was tested in a 10-point serial 3-fold dilution (typical final concentrations: 8.4 μM-0.42 nM). Controls included no inhibitor (DMSO only) and a combination of three antiviral agents (efavirenz, indinavir, an in-house integrase strand transfer inhibitor at final concentrations of 4 μM each). Cells were added (50 μL/well) to compound plates and the infected cells were maintained at 37° C./5% CO2/90% relative humidity.
Infected cells were quantified at two time points, ˜48 h and ˜72 h post-infection, by counting the number of green cells in each well using an Acumen eX3 scanner. The increase in the number of green cells over ˜24 h period gives the reproductive ratio, R0, which is typically 5-15 and has been shown experimentally to be in logarithmic phase (data not shown). Inhibition of R0 is calculated for each well, and IC50s determined by non-linear 4-parameter curve fitting.

[2] = Prodrug stability assay in bio-relevant media (FaSSIF with Pancreatin, GI tract stability); format: in vitro ADME; details: HPLC peak area of prodrug at 5 h / 0 h, 0.5 mg/mL Pancreatin in FaSSIF, 37° C.
Procedure: Prodrug Stability Assay in Bio-Relevant Media
The following assay was employed to evaluate the stability of the prodrugs in simulated gastrointestinal tract conditions. Preparation of fasted state simulated intestinal fluid (FaSSIF) using Phares SIF Powder was carried out according to protocols from Phare Drug Delivery AG (Baselland, Switzerland). For sample preparation, 10 μL stock solutions (10 mM) of prodrug substance in DMSO was added to 990 μL of 0.5 mg/mL Pancreatin solution (Fisher CAS#8049-47-6) in FaSSIF. Two samples were prepared for each compound. If the sample was a clear solution, it was directly analyzed by HPLC. If the sample was not clear, the sample was […] at 37° C. and observed 5 h later. If the sample was clear, HPLC analysis was directly performed. If the sample was still not clear, the sample was diluted with 100% ACN and assayed by HPLC. All the samples were vortexed for 3 min and observed before injection. For the diluted samples, the area is multiplied by a dilution factor when the data is analyzed. The analysis was carried out with an Agilent 1100 series HPLC with autosampler. The column was a Poroshell 120 EC-C18, 4.6×50 mm, […]. The flow rate was 1.8 mL/min, and the injection volume was 5 or 10 μL. UV detection was in the range 210-400 nm. The mobile phase consisted of solvent A (water plus 10 mM tetrabutylammonium bromide) and solvent B (acetonitrile) with a gradient of: 90% solvent A at 0 min, changing to 95% solvent B over 6 min, maintaining for 1.5 min, then reverting to 90% solvent A over 1.6 min. The HPLC peak area of the prodrug at 5 h was divided by the HPLC peak area of the prodrug at 0 h, to generate the % claimed parent ratio, which is summarized in Table 2 for gastrointestinal (GI) Tract stability.

[3] = Human immunodeficiency virus 1, IIIB, 10% normal human serum, read-out: Viking, IC50 (10% NHS)
[4] = Human immunodeficiency virus 1, IIIB, 50% normal human serum, read-out: Viking, IC50 (50% NHS)

Compound	IC50 [1, 3]	IC50 [1, 4]	GI Tract stability [2]	also measured
CC(C)OC(=O)[C@H](C)NP(=O)(CO[C@H](C)Cn1cnc2c(N)ncnc21)ON=C(c1ccccc1)c1ccccc1 (stereo partly drawn) [Example 14, isopropyl (((((R)-1-(6-amino-9H-purin-9-yl)propan-2-yl)oxy)methyl)(((diphenylmethylene)amino)oxy)phosphoryl)-L-alaninate]	18.6 nM	169 nM	–	–
CC(C)CC(CC(C)C)=NOP(=O)(CO[C@H](C)Cn1cnc2c(N)ncnc21)N[C@@H](C)C(=O)OC(C)C (stereo partly drawn) [Example 12, isopropyl (((R)-(((R)-1-(6-amino-9H-purin-9-yl)propan-2-yl)oxy)methyl)(((2,6-dimethylheptan-4-ylidene)amino)oxy)phosphoryl)-L-alaninate; and isopropyl (((S)-(((R)-1-(6-amino-9H-purin-9-yl)propan-2-yl)oxy)methyl)(((2,6-dimethylheptan-4-ylidene)amino)oxy)phosphoryl)-L-alaninate]	–	–	17.6%	–
CC(C)OC(=O)[C@H](C)NP(=O)(CO[C@H](C)Cn1cnc2c(N)ncnc21)ON=C(C1CCCC1)C1CCCC1 (stereo partly drawn) [Example 6, isopropyl (((((R)-1-(6-amino-9H-purin-9-yl)propan-2-yl)oxy)methyl)(((dicyclopentylmethyl-ene)amino)oxy)phosphoryl)-L-alaninate]	24.3 nM	51.3 nM	–	–
CC(C)CC(CC(C)C)=NOP(=O)(CO[C@H](C)Cn1cnc2c(N)ncnc21)NC(C)(C)C(=O)OC1CCC1 (mixture of isomers) [Example 32, cyclobutyl 2-(((R)-((((R)-1-(6-amino-9H-purin-9-yl)propan-2-yl)oxy)methyl)(((2,6-dimethylheptan-4-ylidene)amino)oxy)phosphoryl)amino)-2-methylpropanoate; and cyclobutyl 2-(((S)-((((R)-1-(6-amino-9H-purin-9-yl)propan-2-yl)oxy)methyl)(((2,6-dimethylheptan-4-ylidene)amino)oxy)phosphoryl)amino)-2-methylpropanoate]	–	–	5.6%	–
CC(C)OC(=O)[C@H](C)NP(=O)(CO[C@H](C)Cn1cnc2c(N)ncnc21)ON=C1CCN(Cc2ccccc2)CC1 (stereo partly drawn) [Example 11, isopropyl (((((R)-1-(6-amino-9H-purin-9-yl)propan-2-yl)oxy)methyl)(((1-benzylpiperidin-4-ylidene)amino)oxy)phosphoryl)-L-alaninate]	14.8 nM	51.7 nM	–	–
C/C(=N\OP(=O)(CO[C@H](C)Cn1cnc2c(N)ncnc21)N[C@@H](C)C(=O)OC(C)C)c1ccncc1 (stereo partly drawn) [Example 16, isopropyl (((R)-(((R)-1-(6-amino-9H-purin-9-yl)propan-2-yl)oxy)methyl)((((E)-1-(pyridin-4-yl)ethylidene)amino)oxy)phosphoryl)-L-alaninate and isopropyl; and (((S)-(((R)-1-(6-amino-9H-purin-9-yl)propan-2-yl)oxy)methyl)((((E)-1-(pyridin-4-yl)ethylidene)amino)oxy)phosphoryl)-L-alaninate]	780 nM	1140 nM	–	–
CC(C)OC(=O)[C@H](C)NP(=O)(CO[C@H](C)Cn1cnc2c(N)ncnc21)ON=C1CCCCC1 (stereo partly drawn) [Example 8, isopropyl (((((R)-1-(6-amino-9H-purin-9-yl)propan-2-yl)oxy)methyl)((cyclohexylideneamino)oxy)phosphoryl)-L-alaninate]	67.7 nM	92.1 nM	–	–
CC(C)=NOP(=O)(CO[C@H](C)Cn1cnc2c(N)ncnc21)N[C@@H](C)C(=O)OCc1ccccc1 (stereo partly drawn) [Example 5, benzyl (((R)-(((R)-1-(6-amino-9H-purin-9-yl)propan-2-yl)oxy)methyl)((propan-2-ylideneamino)oxy)phosphoryl)-L-alaninate; and benzyl (((S)-(((R)-1-(6-amino-9H-purin-9-yl)propan-2-yl)oxy)methyl)((propan-2-ylideneamino)oxy)phosphoryl)-L-alaninate]	21.3 nM	115 nM	–	IC50 ([1]; 10% normal human serum, read-out: Viking, IC50 (10% NHS)): 15.2 nM; IC50 ([1]; 50% normal human serum, read-out: Viking, IC50 (50% NHS)): 67 nM
CC(C)=NOP(=O)(CO[C@H](C)Cn1cnc2c(N)ncnc21)NC(C)(C)C(=O)OC(C)C (stereo partly drawn) [Example 22, isopropyl 2-(((R)-((((R)-1-(6-amino-9H-purin-9-yl)propan-2-yl)oxy)methyl)((propan-2-ylideneamino)oxy)phosphoryl)amino)-2-methylpropanoate; and isopropyl 2-(((S)-((((R)-1-(6-amino-9H-purin-9-yl)propan-2-yl)oxy)methyl)((propan-2-ylideneamino)oxy)phosphonyl)amino)-2-methylpropanoate]	–	–	98.1%	–
CCC(CC)=NOP(=O)(CO[C@H](C)Cn1cnc2c(N)ncnc21)N[C@@H](C)C(=O)OC(C)C (stereo partly drawn) [Example 7, isopropyl (((((R)-1-(6-amino-9H-purin-9-yl)propan-2-yl)oxy)methyl)((pentan-3-ylideneamino)oxy)phosphoryl)-L-alaninate]	28.2 nM	84.7 nM	–	–
C/C(=N\OP(=O)(CO[C@H](C)Cn1cnc2c(N)ncnc21)N[C@@H](C)C(=O)OC(C)C)C1CCCCC1 (stereo partly drawn) [Example 15, isopropyl (((R)-(((R)-1-(6-amino-9H-purin-9-yl)propan-2-yl)oxy)methyl)((((E)-1-cyclohexylethylidene)amino)oxy)phosphoryl)-L-alaninate; and isopropyl (((S)-(((R)-1-(6-amino-9H-purin-9-yl)propan-2-yl)oxy)methyl)((((E)-1-cyclohexylethylidene)amino)oxy)phosphoryl)-L-alaninate]	–	–	33.4%	–
butyl 2-(((R)-((((R)-1-(6-amino-9H- purin-9-yl)propan-2- yl)oxy)methyl)((propan-2- ylideneamino)oxy)phosphoryl)amino)- 2-methylpropanoate; and butyl 2-(((S)-((((R)-1-(6-amino-9H- purin-9-yl)propan-2- yl)oxy)methyl)((propan-2- ylideneamino)oxy)phosphoryl)amino)- 2-methylpropanoate [Example 23]	–	–	99.0%	–
CC(C)OC(=O)[C@H](C)NP(=O)(CO[C@H](C)Cn1cnc2c(N)ncnc21)ON=C1CCCC1 (stereo partly drawn) [Example 13, isopropyl (((R)-(((R)-1-(6-amino-9H-purin-9-yl)propan-2-yl)oxy)methyl)((cyclopentylidene-amino)oxy)phosphoryl)-L-alaninate; and isopropyl (((S)-(((R)-1-(6-amino-9H-purin-9-yl)propan-2-yl)oxy)methyl)((cyclopentylidene-amino)oxy)phosphoryl)-L-alaninate]	–	–	95.7%	–
CC(C)OC(=O)[C@H](C)NP(=O)(CO[C@H](C)Cn1cnc2c(N)ncnc21)ON=C1CCOCC1 (stereo partly drawn) [Example 9, isopropyl (((((R)-1-(6-amino-9H-purin-9-yl)propan-2-yl)oxy)methyl)(((tetrahydro-4H-pyran-4-ylidene)amino)oxy)phosphoryl)-L-alaninate]	165 nM	360 nM	–	–
